Results on two compounds are retold here after patent US20110223597A1 (priority 2010, published 2011).

Data set [1] concerns UGTs 1A1, 1A3, 1A6, 1A7, 1A8, 1A9, 1A10, 2B4, 2B7, 2B11, 2B15 or 2B17. Put plainly: Screening of OLZ glucuronidation activity by homogenates of HEK293 cells over-expressing other wild-type UGTs. The class given is in vitro ADME, human. Particulars: up to 250 μg of UGT-over-expressing cell homogenate.
For data set [2], the system named is UGT1A4 (overall OLZ glucuronidation). Put plainly: in vitro. Particulars: human, pH 7.5.
Data set [3] deals with T1, UGT1A4 (Homo sapiens, UniProt P22310).
T1 sequence (P22310 29-534): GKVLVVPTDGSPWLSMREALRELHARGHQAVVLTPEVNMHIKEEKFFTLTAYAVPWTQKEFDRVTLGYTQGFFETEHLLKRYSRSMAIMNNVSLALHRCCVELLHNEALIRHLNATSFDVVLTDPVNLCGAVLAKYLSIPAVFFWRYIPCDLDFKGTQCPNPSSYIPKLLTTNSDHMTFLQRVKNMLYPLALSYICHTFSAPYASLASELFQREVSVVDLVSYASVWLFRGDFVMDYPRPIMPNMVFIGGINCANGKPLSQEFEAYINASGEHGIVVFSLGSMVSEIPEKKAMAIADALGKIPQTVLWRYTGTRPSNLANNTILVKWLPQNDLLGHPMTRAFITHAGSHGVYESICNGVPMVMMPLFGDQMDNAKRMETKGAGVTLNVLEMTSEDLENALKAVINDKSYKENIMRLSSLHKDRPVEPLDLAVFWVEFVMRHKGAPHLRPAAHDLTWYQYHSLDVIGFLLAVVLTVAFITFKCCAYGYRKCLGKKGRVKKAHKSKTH
Put plainly: in vitro. Particulars: homogenates from UGT1A4-over-expressing cells, pH 7.5, probe OLZ (olanzapine), 25 μM.
Procedure: Glucuronidation assays were performed in 50 mmol/L Tris buffer (pH 7.5), 10 mmol/L MgCl2, 4 mmol/L UDP-glucuronic acid (UDPGA), and 7.8 μmol/L to 4 mmol/L of substrate at 37° C. in a water bath for 2 h. […] Reactions were terminated by the addition of the same volume of cold acetonitrile as the initial reaction volume. Reactions were centrifuged at 13,000 g for 10 min at 4° C. and supernatants were collected. […] Elution consisted of a gradient elution starting with 87.5% buffer B (100% acetonitrile) and 17.5% buffer A [5 mmol/L ammonium acetate (pH 6.0)] for 5 min, a linear gradient to 90% buffer B over 1 min and held for 2 min, then a linear gradient back to initial conditions and held for 2 min for a total run time of 10 min. The flow rate was maintained at 0.5 mL/min. […] 1, 1997; 25(0:81-93, and by mass spectrometry as described herein. As controls, glucuronidation assays were performed using HLM as a positive control for glucuronidation activity and untransfected HEK293 cell homogenate protein as a negative control for glucuronidation activity. Four independent experiments were performed for kinetic analysis of UGT-over-expressing cell homogenates, with all assays within each experiment performed in duplicate; two independent experiments were performed for rate determination assays and three for kinetic analysis for HLM specimens.

For the compound `Cc1cc2c(s1)Nc1ccccc1N=C2N1CCN(C)CC1` [OLZ, Olanzapine], the “glucuronidation activity against OLZ in UGT screening” value in data set [1] is given as “None of the other UGTs screened”.
In general, inhibition refers to the percentage by which the read-out fell short of the control. `Nc1nnc(-c2cccc(Cl)c2Cl)c(N)n1` [LTG, lamotrigine]: the inhibition at 2 h, 2000 μM in data set [2] was 12 ± 3.4%; in data set [3], 41%.
